{
  "source": "paper PMC5852172",
  "about": "“Characterization of antimicrobial and hemolytic properties of short synthetic cationic lipopeptides based on QSAR/QSTR approach” (Amino Acids, 2017)",
  "origin": "cited, not measured here",
  "key": {"[1]": {"test_system": "Staphylococcus aureus (ATCC 25923)", "conditions": "minimum inhibitory concentration, CLSI procedure, S. aureus ATCC 25923; ref [1] Greber et al. 2017", "text": "Supplement 726_2017_2530_MOESM1_ESM.docx, table 1: Table 1S. Antimicrobial activity toward Gram-positive strains and toxicity toward human red blood cells. | column: Staphylococcus aureus"}, "[2]": {"test_system": "S. epidermidis (PCM 2118)", "conditions": "minimum inhibitory concentration, CLSI procedure, ref [1] Greber et al. 2017", "text": "Supplement 726_2017_2530_MOESM1_ESM.docx, table 1: Table 1S. Antimicrobial activity toward Gram-positive strains and toxicity toward human red blood cells. | column: Staphylococcus epidermidis"}, "[3]": {"test_system": "Bacillus subtilis (ATCC 6633)", "conditions": "minimum inhibitory concentration, CLSI procedure, B. subtilis ATCC 6633; ref [1] Greber et al. 2017", "text": "Supplement 726_2017_2530_MOESM1_ESM.docx, table 1: Table 1S. Antimicrobial activity toward Gram-positive strains and toxicity toward human red blood cells. | column: Bacillus subtillis"}, "[4]": {"test_system": "Enterococcus faecalis (ATCC 29212)", "conditions": "minimum inhibitory concentration, CLSI procedure, E. faecalis ATCC 29212; ref [1] Greber et al. 2017", "text": "Supplement 726_2017_2530_MOESM1_ESM.docx, table 1: Table 1S. Antimicrobial activity toward Gram-positive strains and toxicity toward human red blood cells. | column: Enterococcus fecalis"}, "[5]": {"test_system": "human red blood cells", "conditions": "lowest concentration of lipopeptide inducing 10% hemolysis of human red blood cells; ref [1] Greber et al. 2017", "text": "Supplement 726_2017_2530_MOESM1_ESM.docx, table 1: Table 1S. Antimicrobial activity toward Gram-positive strains and toxicity toward human red blood cells. | column: Haemolysis"}},
  "data": [
    {"substance": "C16-KK-NH2", "values": [
      {"measurement": "Staphylococcus aureus MIC", "setting": "[1]", "result": 8, "unit": "µg/mL"},
      {"measurement": "Staphylococcus epidermidis MIC", "setting": "[2]", "result": 4, "unit": "µg/mL"},
      {"measurement": "Bacillus subtillis MIC", "setting": "[3]", "result": 4, "unit": "µg/mL"},
      {"measurement": "Enterococcus fecalis MIC", "setting": "[4]", "result": 8, "unit": "µg/mL"},
      {"measurement": "Haemolysis MHC", "setting": "[5]", "result": 256, "unit": "µg/mL"}
    ]},
    {"substance": "C16-KKK-NH2", "values": [
      {"measurement": "Staphylococcus aureus MIC", "setting": "[1]", "result": 8, "unit": "µg/mL"},
      {"measurement": "Staphylococcus epidermidis MIC", "setting": "[2]", "result": 4, "unit": "µg/mL"},
      {"measurement": "Bacillus subtillis MIC", "setting": "[3]", "result": 8, "unit": "µg/mL"},
      {"measurement": "Enterococcus fecalis MIC", "setting": "[4]", "result": 16, "unit": "µg/mL"},
      {"measurement": "Haemolysis MHC", "setting": "[5]", "result": 32, "unit": "µg/mL"}
    ]},
    {"substance": "C16-KKKK-NH2", "values": [
      {"measurement": "Staphylococcus aureus MIC", "setting": "[1]", "result": 4, "unit": "µg/mL"},
      {"measurement": "Staphylococcus epidermidis MIC", "setting": "[2]", "result": 4, "unit": "µg/mL"},
      {"measurement": "Bacillus subtillis MIC", "setting": "[3]", "result": 4, "unit": "µg/mL"},
      {"measurement": "Enterococcus fecalis MIC", "setting": "[4]", "result": 16, "unit": "µg/mL"},
      {"measurement": "Haemolysis MHC", "setting": "[5]", "result": 16, "unit": "µg/mL"}
    ]}
  ]
}
